The test system of experiment [1] is MADB 106 tumor cells. Briefly: MADB 106 lung tumor retention (LTR) in F344 rats. Format: in vivo, F344 rat. To be noted: for MADB 106 LTR, GLA vs PBS (time course): with epinephrine. As to the method:
GLA (IDRI, Seattle, Wash.), dissolved in stable emulsion (SE) (2000 μg/ml) was diluted in PBS for a final concentration of 3 μg/ml-200 μg/ml (depending on the relevant experiment). One-hundred μl from the chosen concentration were injected subcutaneously (s.c.) to each animal (0.3 μg-20 μg/animal), immediately, 4 h, 12 h, 24 h, 48 h, or 96 h prior to MADB106 tumor cell inoculation (depending on the relevant experiment).
MADB 106 tumor cells metastasize only to the lungs, and lung tumor retention (LTR), which is highly indicative of the number of metastases that would have developed weeks later, is dependent upon NK cells in this model. Additionally, because the metastatic process of MADB106 is sensitive to NK activity predominantly during the first 24 h following inoculation, LTR is more reflective of in vivo NK activity levels than the number of actual metastases. The MADB 106 cell line was maintained in monolayer cultures in complete media (RPMI-1640 media supplemented with 10% heat-inactivated fetal calf serum (FCS), 50 μg/mL of gentamicin, 2 mM of 1-glutamine, 0.1 mM of non-essential amino-acids, and 1 mM of sodium pyruvate, (Biological Industries, Kibbutz Biet Haemek, Israel) in 100% humidity, 5% CO2 at 37° C. Cells were removed from the culture flask with trypsin solution (0.25% in PBS), and were washed with complete media. This cell line was used for both in vivo assessment of lung tumor retention and in vitro examination of NK cytotoxicity.
Tumor cell DNA radiolabeling for assessment of LTR was accomplished by adding 0.5 μCi/ml of ^125Iododeoxyuridine (^125IDUR, Danyel Biotech, Rehovot, Israel) to the cell culture for 24 h. For tumor cell injection, rats were lightly anesthetized with isoflurane, and 4×10^5/kg MADB106 tumor cells in 2 ml/kg PBS containing 0.1% bovine serum albumin (BSA) were injected into their tail vein. Some of the experiments also employed an additional 0.5 ml s.c. injection of epinephrine (1.8 mg/kg in females and 0.6 mg/kg in males) dissolved in a slow-release emulsion (4 parts PBS, 3 parts mineral oil (Sigma, Rehovot, Israel), and 1 part mannide-monooleate (a non-specific surface active emulsifier, Sigma, Rehovot, Israel)), for the amplification of MADB 106 retention in the lungs, allowing better group distinction. For assessment of LTR, animals were sacrificed with CO2, their lungs were removed 24 h after inoculation with ^125IDUR-labeled tumor cells, and placed in a γ-counter to assess percent radioactivity retained in this organ. LTR was calculated using the following formula: (radioactivity count of lung−background radioactivity)×100/(radioactivity count of the total injected cell suspension−background radioactivity).
Seventy-five three months old F344 male rats were randomly divided into one of 7 experimental groups administered with PBS, SE, or GLA in a dose/animal of 0.3 μg, 0.7 μg, 2.5 μg, 10 μg, and 20 μg. Each animal was injected s.c. with 100 μl of drug according to its group assignment, and, 24 h later, MADB 106 cells were inoculated (as detailed in section 4 above). Each of these 7 groups was further sub-divided into two separate groups—one that was injected with epinephrine during tumor inoculation, and the second that was injected with vehicle. Twenty-four hours later, animals were sacrificed and lungs were extracted for LTR assessment (as detailed in section 4).
In the first experiment, 75 six-month old F344 male rats were randomly divided into one of 5 injection time points preceding tumor inoculation—0 h, 4 h, 12 h, 24 h, and 48 h. Each group was further sub-divided into one of three experimental drug groups—PBS, SE, and 2 μg GLA. Each animal was injected s.c. with 100 μl according to its relevant drug group, in its designated time point. At time 0 h, MADB106 cells were injected (as detailed in section 4), along with epinephrine. […]

Experiment [2] deals with MADB 106 tumor cells. Nature of the experiment: Three week study of MADB106 metastases development in the lungs. To be noted: male and female rats, 2 μg GLA s.c. 24 h before inoculation, counted three weeks later, GLA reducing the number. Format: in vivo, F344 rat. As to the method:
Eighty-six six-month old F344 rats (44 females) were divided into three experimental groups (2 μg GLA, SE, and PBS). Each animal was injected s.c. with 100 μl according to its group assignment. Twenty-four hrs later, animals were lightly anesthetized with isoflurane and 10^5 MADB 106 tumor cells (approximately 4×10^5/kg) were injected into their tail vein in 0.5 ml of PBS (supplemented with 0.1% BSA). Three weeks later, rats were killed, and their lungs removed and placed for 24 h in Bouin's solution (72% saturated picric acid solution, 23% formaldehyde (37% solution) and 5% glacial acetic acid). After being washed in ethanol, visible surface metastases were counted by a researcher uninformed of the origin of each lung.

Regarding `CNC[C@H](O)c1ccc(O)c(O)c1` [epinephrine, reference compound], in experiment [1] (s.c. slow-release emulsion given along with MADB 106 cell inoculation), the “effect of epinephrine on LTR” value is reported as “increasing LTR levels”.

Turning to glucopyranosyl lipid adjuvant [GLA], the “MADB 106 LTR, GLA vs PBS (time course)” value in experiment [1] (female rats, 2 μg GLA s.c. 24 h before inoculation, p<0.05) is given as “significant difference”; in experiment [1] (female rats, 2 μg GLA s.c. 48 h before inoculation, p<0.05) it was “significant difference”; in experiment [1] (male rats, 2 μg GLA s.c. 4 h before inoculation, p<0.05) it was “significant difference”; in experiment [1] (male rats, 2 μg GLA s.c. 12 h before inoculation, p<0.0001) it was “significant difference”; in experiment [1] (male rats, 2 μg GLA s.c. 24 h before inoculation, p<0.0001), “significant difference”; in experiment [1] (male rats, 2 μg GLA s.c. 48 h before inoculation, p<0.0001), “significant difference”. Further, in experiment [1] (male rats, NK depletion by anti-NKR-P1 mAb, 2 μg GLA or SE s.c. 24 h before inoculation), the “MADB 106 LTR in NK-depleted animals” value is “no effect”. In addition, the “MADB 106 LTR, additive effect of GLA over SE” value in experiment [1] (male rats, epinephrine groups, 0.7 μg/animal s.c. 24 h before inoculation, p<0.05) was “significant improvements”; in experiment [1] (male rats, epinephrine groups, 2.5 μg/animal s.c. 24 h before inoculation, p<0.01) it was “significant improvements”; in experiment [1] (male rats, epinephrine groups, 10 μg/animal s.c. 24 h before inoculation, p<0.01), “significant improvements”; in experiment [1] (male rats, epinephrine groups, 20 μg/animal s.c. 24 h before inoculation, p<0.001) it was “significant improvements”. For the same molecule, the “reduction of the epinephrine effect on LTR, relation to dosage” value in experiment [1] (male rats, epinephrine groups, 0.3-20 μg/animal) was “positively correlated with its dosage”. The “MADB 106 LTR, GLA over PBS” value is reported as “significant improvement” in experiment [1] (male rats, epinephrine groups, all GLA doses (0.3-20 μg/animal) s.c. 24 h before tumor inoculation, p<0.0001); “significant improvement” in experiment [1] (male rats, vehicle (no epinephrine) groups, 0.7 μg/animal s.c. 24 h before inoculation, p<0.05); “significant improvement” in experiment [1] (male rats, vehicle (no epinephrine) groups, 2.5 μg/animal s.c. 24 h before inoculation, p<0.01); “significant improvement” in experiment [1] (male rats, vehicle (no epinephrine) groups, 10 μg/animal s.c. 24 h before inoculation, p<0.05); “significant improvement” in experiment [1] (male rats, vehicle (no epinephrine) groups, 20 μg/animal s.c. 24 h before inoculation, p<0.01). For the same molecule, in experiment [1] (male rats, no NK depletion, 2 μg GLA s.c. 24 h before inoculation, p<0.01), the “MADB 106 LTR, GLA vs PBS, no-depletion condition” value is “significant difference”. Besides, in experiment [1] (male rats, s.c. 24 h before inoculation), the “dosage giving an additive effect for GLA over SE effects on LTR” value is at least 0.7 μg per animal. Moreover, the “number of lung surface metastases, GLA vs SE” value in experiment [2] (p<0.01) is “significant difference”. For the same molecule, the “number of lung surface metastases, GLA vs PBS” value in experiment [2] (p<0.05) is given as “significant difference”.

Values taken from patent US9463198B2, “Compositions and methods for reducing or preventing metastasis” (Infectious Disease Research Institute, priority 2013, dated 2016).
